From patent publication US20070010671A1, “Novel quinazoline derivatives and methods of treatment related to the use thereof” (priority 2003, published 2007)

target: MCH receptor (Homo sapiens, UniProt Q99705); experiment: High throughput functional screening FLIPR/FDSS6000: inhibition of MCH-evoked intracellular Ca2+ changes; assay type: cell-based; conditions: class by percent of control at 10^-7 M or IC50
In short: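 Cells expressing constitutively active MCH receptor, loaded with 4 μM Fluo4-AM for 1 h at 37 °C, were pretreated 3 min with compound, then challenged with MCH (50 nM for antagonist testing). MCH-evoked [Ca2+]i transients followed by FLIPR or FDSS (ex 488/em 530 nm) over 290 s.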

Row | SMILES | class
1 | CCc1ccccc1NC(=O)NC[C@H]1CC[C@@H](Nc2nc(N(C)C)c3ccccc3n2)CC1 [compound 494, N-[(cis-4-{[4-(dimethylamino)quinazolin-2-yl]amino}cyclohexyl)methyl]-N′-(2-ethylphenyl)urea] | 1 (Class 1: The value of percent of control at 10^−7 M was less than 40% or the value of IC50 was less than 50 nM.)
2 | CN(C)c1nc(N[C@H]2CC[C@@H](CNC(=S)NCCCCc3ccccc3)CC2)nc2ccccc12 [compound 795] | 3 (Class 3: The value of percent of control at 10^−7 M was more than 60% or the value of IC50 was more than 200 nM.)
3 | Cc1cc(C)cc(NC(=S)NC[C@H]2CC[C@@H](Nc3nc(N(C)C)c4ccccc4n3)CC2)c1 [compound 684] | 3 (Class 3: The value of percent of control at 10^−7 M was more than 60% or the value of IC50 was more than 200 nM.)
4 | CCCCc1ccc(NC(=O)NC[C@H]2CC[C@@H](Nc3nc(N(C)C)c4ccccc4n3)CC2)cc1 [compound 561] | 3 (Class 3: The value of percent of control at 10^−7 M was more than 60% or the value of IC50 was more than 200 nM.)
5 | CCNC(=O)NC[C@H]1CC[C@@H](Nc2nc(N(C)C)c3ccccc3n2)CC1 [compound 433] | 3 (Class 3: The value of percent of control at 10^−7 M was more than 60% or the value of IC50 was more than 200 nM.)
6 | CN(C)c1nc(N[C@H]2CC[C@@H](CNC(=O)Nc3ccccc3C(C)(C)C)CC2)nc2ccccc12 [compound 516, N-(2-tert-butylphenyl)-N′-[(cis-4-{[4-(dimethylamino)quinazolin-2-yl]amino}cyclohexyl)methyl]urea] | 1 (Class 1: The value of percent of control at 10^−7 M was less than 40% or the value of IC50 was less than 50 nM.)
7 | CN(C)c1nc(N[C@H]2CC[C@@H](NC(=S)Nc3ccc(Oc4ccc([N+](=O)[O-])cc4)cc3)CC2)nc2ccccc12 [compound 317] | 3 (Class 3: The value of percent of control at 10^−7 M was more than 60% or the value of IC50 was more than 200 nM.)
8 | Cc1cccc(NC(=S)N[C@H]2CC[C@@H](Nc3nc(N(C)C)c4ccccc4n3)CC2)c1C [compound 359, N-(cis-4-{[4-(dimethylamino)quinazolin-2-yl]amino}cyclohexyl)-N′-(2,3-dimethylphenyl)thiourea] | 1 (Class 1: The value of percent of control at 10^−7 M was less than 40% or the value of IC50 was less than 50 nM.)
9 | COc1cc(NC(=O)NC[C@H]2CC[C@@H](Nc3nc(N(C)C)c4ccccc4n3)CC2)cc(OC)c1OC [compound 520] | 3 (Class 3: The value of percent of control at 10^−7 M was more than 60% or the value of IC50 was more than 200 nM.)
10 | CN(C)c1nc(N[C@H]2CC[C@@H](CNC(=O)Nc3ccccc3Cl)CC2)nc2ccccc12 [compound 419, N-(2-chlorophenyl)-N′-[(cis-4-{[4-(dimethylamino)quinazolin-2-yl]amino}cyclohexyl)methyl]urea] | 1 (Class 1: The value of percent of control at 10^−7 M was less than 40% or the value of IC50 was less than 50 nM.)
11 | COC(=O)c1ccc(NC(=O)NC[C@H]2CC[C@@H](Nc3nc(N(C)C)c4ccccc4n3)CC2)cc1 [compound 574] | 3 (Class 3: The value of percent of control at 10^−7 M was more than 60% or the value of IC50 was more than 200 nM.)
12 | COc1cccc(NC(=O)NC[C@H]2CC[C@@H](Nc3nc(N(C)C)c4ccccc4n3)CC2)c1 [compound 447, N-[(cis-4-{[4-(dimethylamino)quinazolin-2-yl]amino}cyclohexyl)methyl]-N′-(3-methoxyphenyl)urea] | 2 (Class 2: The value of percent of control at 10^−7 M was from 40% to 60% or the value of IC50 was from 50 nM to 200 nM.)
13 | CN(C)c1nc(N[C@H]2CC[C@@H](CNC(=S)Nc3ccc([N+](=O)[O-])cc3)CC2)nc2ccccc12 [compound 613, N-[(cis-4-{[4-(dimethylamino)quinazolin-2-yl]amino}cyclohexyl)methyl]-N′-(4-nitrophenyl)thiourea] | 2 (Class 2: The value of percent of control at 10^−7 M was from 40% to 60% or the value of IC50 was from 50 nM to 200 nM.)
14 | COc1ccc(Cl)cc1NC(=O)NC[C@H]1CC[C@@H](Nc2nc(N(C)C)c3ccccc3n2)CC1 [compound 564] | 3 (Class 3: The value of percent of control at 10^−7 M was more than 60% or the value of IC50 was more than 200 nM.)
15 | CN(C)c1nc(N[C@H]2CC[C@@H](CNC(=O)Nc3ccc(F)c(F)c3)CC2)nc2ccccc12 [compound 522, N-(3,4-difluorophenyl)-N′-[(cis-4-{[4-(dimethylamino)quinazolin-2-yl]amino}cyclohexyl)methyl]urea] | 1 (Class 1: The value of percent of control at 10^−7 M was less than 40% or the value of IC50 was less than 50 nM.)

same assay, conditions: class by percent of control at 10^-7 M or by IC50; read-out: class

Row | SMILES | IC50
16 | COc1cc(OC)c(NC(=O)N[C@H]2CC[C@@H](Nc3nc(N(C)C)c4ccccc4n3)CC2)cc1Cl [compound 834, N-(5-chloro-2,4-dimethoxyphenyl)-N′-(cis-4-{[4-(dimethylamino)quinazolin-2-yl]amino}cyclohexyl)urea] | < 50 nM
17 | CN(C)c1nc(N[C@H]2CC[C@@H](NC(=O)Nc3ccccc3Br)CC2)nc2ccccc12 [compound 10, N-(2-bromophenyl)-N′-(cis-4-{[4-(dimethylamino)quinazolin-2-yl]amino}cyclohexyl)urea] | < 50 nM
18 | CN(C)c1nc(N[C@H]2CC[C@@H](NC(=O)Nc3c(F)cc(Br)cc3Br)CC2)nc2ccccc12 [compound 76, N-(2,4-dibromo-6-fluorophenyl)-N′-(cis-4-{[4-(dimethylamino)quinazolin-2-yl]amino}cyclohexyl)urea] | < 50 nM
19 | Cc1ccc(NC(=O)N[C@H]2CC[C@@H](Nc3nc(N(C)C)c4ccccc4n3)CC2)c(C)c1 [compound 80] | > 200 nM
20 | COc1ccc([N+](=O)[O-])cc1NC(=O)N[C@H]1CC[C@@H](Nc2nc(N(C)C)c3ccccc3n2)CC1 [compound 106] | > 200 nM
21 | CCc1cccc(C)c1NC(=O)N[C@H]1CC[C@@H](Nc2nc(N(C)C)c3ccccc3n2)CC1 [compound 33, N-(cis-4-{[4-(dimethylamino)quinazolin-2-yl]amino}cyclohexyl)-N′-(2-ethyl-6-methylphenyl)urea] | < 50 nM

same assay, conditions: class by percent of control at 10^−7 M or by IC50; read-out: class

Row | SMILES | IC50
22 | CN(C)c1nc(N[C@H]2CC[C@@H](CNC(=O)c3cc(F)cc(F)c3)C2)nc2ccccc12 [Example 1130, N-[((1R,3S)-3-{[4-(dimethylamino)quinazolin-2-yl]amino}cyclopentyl)methyl]-3,5-difluorobenzamide] | < 50 nM
23 | CN(C)c1nc(N[C@H]2CC[C@@H](C(=O)NCc3ccccc3F)CC2)nc2ccccc12 [Example 1151, cis-4-{[4-(dimethylamino)quinazolin-2-yl]amino}-N-(2-fluorobenzyl)cyclohexanecarboxamide] | < 50 nM
24 | CN(C)c1nc(N[C@H]2CC[C@@H](NC(=O)CNc3ccccc3)CC2)nc2ccccc12 [Example 1085, N-(cis-4-{[4-(dimethylamino)quinazolin-2-yl]amino}cyclohexyl)-N2-phenylglycinamide] | < 50 nM
25 | COc1ccc(OC)c(NC(=O)NC[C@H]2CC[C@@H](Nc3nc(N(C)C)c4ccccc4n3)CC2)c1 [Example 1020, N-(2,5-dimethoxyphenyl)-N′-[(cis-4-{[4-(dimethylamino)quinazolin-2-yl]amino}cyclohexyl)methyl]urea] | 50 to 200 nM
26 | CC(=O)Nc1cccc(C(=O)N[C@H]2CC[C@@H](Nc3nc(N(C)C)c4ccccc4n3)CC2)c1 [Example 1204, 3-(acetylamino)-N-(cis-4-{[4-(dimethylamino)quinazolin-2-yl]amino}cyclohexyl)benzamide] | < 50 nM
